Reference: US20240327460A1, “NORA INHIBITORS AND METHODS OF USE” (priority 2021, published 2024)

Experiments:
MRSA^ΔnorA = assay: Norfloxacin MIC assays in MRSA (MIC test strips); assay type: cell-based, Staphylococcus aureus; settings: MRSA^ΔnorA expressing wild-type NorA relative to MRSA^ΔnorA alone
Procedure: Wild-type USA300 strain JE2 (“MRSA”) (Fey et al., “A Genetic Resource for Rapid and Comprehensive Phenotype Screening of Nonessential Staphylococcus aureus Genes,” Mbio 4:e00537-00512 (2013), which is hereby incorporated by reference in its entirety) and isogenic strains, norA::bursa (MRSA^ΔnorA) containing empty vector, or hemin-inducible NorA variants were grown overnight at 37° C. in TSB media supplemented with 10 μg/ml chloramphenicol and 1 μM hemin. The cultures were diluted to approximately 1×10^8 CFU/ml and evenly spread on TSA plates supplemented with 5 μg/ml chloramphenicol and 1 μM hemin. The norfloxacin MIC test strips (Liofilchem) were placed in the center of the plate and the plates were incubated for 24 hr at 37° C. The MIC values were read at the intersection of the inhibition eclipse and the strip. At least two independent MIC experiments were acquired for each sample; reported errors reflect the standard deviation among independent experiments.

MRSA and MRSA^ΔnorA = assay: Bacteriostatic/bactericidal effect of norfloxacin on MRSA (CFU); assay type: cell-based, Staphylococcus aureus; settings: norfloxacin 0, 12.5 or 25 μg/ml; 1, 2, 4 hr
Procedure: MRSA or MRSA^ΔnorA were cultured overnight in 5 ml TSB and diluted 1:1,000 with TSB the next morning. In a round-bottom 96-well plate, 50 μl of the diluted culture was mixed with 50 μl of TSB supplemented with norfloxacin. The final concentration of MRSA or MRSA^ΔnorA was ˜1×10^6 CFU/ml and norfloxacin was 0, 12.5, or 25 μg/ml. The plate was incubated while shaking at 37° C. At 0 hr and after 1, 2, or 4 hr of incubation, CFUs of MRSA or MRSA^ΔnorA were enumerated by serially diluting in PBS and spot plating on TSA plates.

NorA = molecular target: T1, NorA (Staphylococcus aureus, UniProt Q5HHX4); assay: FP competition binding experiment with norfloxacin; parameters: species or system S. aureus; settings: NorA 50 nM, FITC-NPI-1 15 nM, norfloxacin 10 nM and 2 mM
T1 construct: made in house; host or cells: C43 (DE3) E. coli
Procedure: FP competition binding experiments with norfloxacin were performed using FITC-NPI-1 as described above. These experiments used a fixed concentration of NorA in PMAL-C8 amphipol at 50 nM and FITC-NPI-1 at 15 nM with norfloxacin concentrations of 10 nM and 2 mM in 100 μL solutions of 20 mM Tris pH 7.5, 100 mM NaCl, 10% glycerol, 0.1% pluronic acid, and 1.2% DMSO. A control experiment was performed in the same manner but in the absence of NorA. Four independent trials of FP experiments were performed, each in triplicate.

T1 sequence (Q5HHX4 whole entry): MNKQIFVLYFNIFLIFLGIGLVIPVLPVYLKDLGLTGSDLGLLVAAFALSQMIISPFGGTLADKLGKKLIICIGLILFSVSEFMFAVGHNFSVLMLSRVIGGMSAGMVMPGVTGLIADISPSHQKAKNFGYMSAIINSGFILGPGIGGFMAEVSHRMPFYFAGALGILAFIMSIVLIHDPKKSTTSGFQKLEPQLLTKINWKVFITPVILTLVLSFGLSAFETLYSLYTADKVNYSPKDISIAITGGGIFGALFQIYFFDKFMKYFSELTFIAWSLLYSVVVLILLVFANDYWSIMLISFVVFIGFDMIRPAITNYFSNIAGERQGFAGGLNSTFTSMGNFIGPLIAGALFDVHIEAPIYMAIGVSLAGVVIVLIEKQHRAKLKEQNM

Structure (SMILES): CCn1cc(C(=O)O)c(=O)c2cc(F)c(N3CCNCC3)cc21 [norfloxacin]
- greater norfloxacin MIC (MRSA^ΔnorA): 20 fold
- effect on the growth of MRSA and MRSA^ΔnorA (MRSA and MRSA^ΔnorA): bacteriostatic effect
- competition with NPI-1 binding to NorA (NorA): compete with NPI-1 binding to NorA
